Reference: PubChem BioAssay (NCI)
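Five compound concentrations were applied to cells in 96-well plates for 48 hours; endpoints were derived by simple linear interpolation of the resulting dose-response curve. GI50 = concentration required for 50% inhibition of growth. At the TGI there is no net growth.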

What was measured:
Test in all cases: inhibition of tumour cell growth, NCI panel, 48 h
OVCAR-5 ovarian = system: OVCAR-5 ovarian
SK-MEL-28 melanoma = system: SK-MEL-28 melanoma
SK-OV-3 ovarian = system: SK-OV-3 ovarian
RPMI-8226 leukemia = system: RPMI-8226 leukemia
UO-31 renal = system: UO-31 renal
TK-10 renal = system: TK-10 renal
ACHN renal = system: ACHN renal
KM12 colon = system: KM12 colon
A498 renal = system: A498 renal
A549 NSCLC = system: A549 NSCLC

Compound | GI50 (OVCAR-5 ovarian) [µM] | TGI (OVCAR-5 ovarian) [µM] | GI50 (SK-MEL-28 melanoma) [µM] | TGI (SK-MEL-28 melanoma) [µM] | GI50 (SK-OV-3 ovarian) [µM] | TGI (SK-OV-3 ovarian) [µM] | GI50 (RPMI-8226 leukemia) [µM] | TGI (RPMI-8226 leukemia) [µM] | GI50 (UO-31 renal) [µM] | TGI (UO-31 renal) [µM] | GI50 (TK-10 renal) [µM] | TGI (TK-10 renal) [µM] | GI50 (ACHN renal) [µM] | TGI (ACHN renal) [µM] | GI50 (KM12 colon) [µM] | TGI (KM12 colon) [µM] | GI50 (A498 renal) [µM] | TGI (A498 renal) [µM] | TGI (A549 NSCLC) [µM] | GI50 (A549 NSCLC) [µM]
N=C(N)c1ccc(-c2ccc(-c3cc(Cl)cc(Cl)c3)o2)nc1 | 1.73 | 3.43 | 1.8 | 3.59 | 1.95 | 3.51 | 2.03 | 4.33 | 1.54 | 3.11 | 1.87 | 3.5 | 1.81 | 3.36 | 1.85 | 3.44 | 1.47 | 3.22 | – | –
O=C(N/N=C(/c1ccccc1)C(F)(F)F)c1ccncc1 | – | > 100 | – | > 100 | – | > 100 | – | > 100 | – | > 100 | – | > 100 | – | – | – | > 100 | – | > 100 | – | –
CCCc1[nH]c(SCCCCCCCCSc2nc(-c3ccc(F)cc3)c(CCC)[nH]2)nc1-c1ccc(F)cc1 | – | > 100 | – | > 100 | – | – | – | – | – | > 100 | – | > 100 | – | > 100 | – | > 100 | – | – | > 100 | –
CC1SC(c2ccccc2)N(CCc2cccs2)C1=O (stereo not given) | 10.3 | 27 | 4.96 | 17.9 | 7.64 | 20.9 | 2.44 | 8.07 | – | – | 4.05 | 26 | 4.69 | 17.9 | 3.44 | 13.3 | 2.63 | 14.2 | 15.1 | 4.16
COc1ccc(/C(=C2/O[C@@H]([C@H]3COC(C)(C)O3)[C@H]3OC(C)(C)O[C@@H]23)c2cc(OC)c(OC)c(OC)c2)cc1O | 59.6 | > 100 | 10.6 | > 100 | 12.6 | 91.7 | 4.82 | 34 | 21.8 | 70.4 | 36.6 | 86.3 | 15.4 | > 100 | 4.1 | 17.8 | 32.1 | 97.4 | > 100 | 22.7
CN(C)CC(=O)Nc1ccc(Cn2nnc3c2C(=O)c2nnn(Cc4ccc(NC(=O)CN(C)C)cc4)c2C3=O)cc1 | 0.234 | 0.578 | – | – | 0.0949 | 0.222 | 0.225 | 0.783 | – | – | 2.86 | 7.58 | 0.335 | 1.23 | – | – | 1.07 | 2.29 | – | –
CCOC(=O)CSc1nc(N)c2c(-c3ccc(OC)c(OC)c3)c3c(nc2n1)CCCC3 | – | > 100 | – | > 100 | – | > 100 | – | > 100 | – | > 100 | – | > 100 | – | > 100 | – | > 100 | – | – | > 100 | –
Cc1cccc2nc3c(C(=O)NCCN(C)C)cccc3cc12 | – | 6.59 | – | 3.62 | – | 7.9 | – | 4.19 | – | 5.44 | – | – | – | – | – | 9.47 | – | 3.48 | 3.5 | –
CCN(CC)CC(C)Nc1ccc([N+](=O)[O-])c2sc3ccccc3c(=O)c12 (stereo not given) | 3.63 | > 100 | 1.95 | 4.56 | 1.87 | 13.2 | – | – | 1 | 3.29 | 1.91 | 54.2 | 0.895 | 4.3 | 2.14 | 13.5 | 1.49 | 10.5 | 5.04 | 0.938
CNC(=O)OC(C)CN1c2ccccc2Sc2ccc(Cl)cc21 (stereo not given) | – | > 10 | – | > 10 | – | > 10 | – | > 10 | – | > 10 | – | > 10 | – | > 10 | – | – | – | > 10 | > 10 | –
CCS(=O)(=O)Nc1ccc(Nc2c3ccccc3nc3ccccc23)c(OC)c1 | – | 19.4 | – | 15.4 | – | 5.89 | – | 8.24 | – | 6.34 | – | – | – | – | – | 6.72 | – | 2.28 | 1.7 | –
